For assay [1], the target named is Beta-3 adrenergic receptor (Homo sapiens, UniProt P13945).
Assay [2] deals with T1, D(4) dopamine receptor (Homo sapiens, UniProt P21917).
T1 sequence (P21917 whole entry): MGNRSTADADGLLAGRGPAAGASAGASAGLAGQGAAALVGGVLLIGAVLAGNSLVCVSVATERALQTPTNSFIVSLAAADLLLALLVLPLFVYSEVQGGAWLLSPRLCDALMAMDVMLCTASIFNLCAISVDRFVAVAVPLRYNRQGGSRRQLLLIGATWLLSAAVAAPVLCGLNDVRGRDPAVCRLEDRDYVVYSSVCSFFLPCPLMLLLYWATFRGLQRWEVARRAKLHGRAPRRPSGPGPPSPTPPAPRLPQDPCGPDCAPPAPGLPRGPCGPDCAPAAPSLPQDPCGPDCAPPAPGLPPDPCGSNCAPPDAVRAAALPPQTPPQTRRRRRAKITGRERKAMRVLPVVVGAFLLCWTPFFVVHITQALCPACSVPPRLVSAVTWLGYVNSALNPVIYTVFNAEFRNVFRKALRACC

The target of assay [3] is D(1A) dopamine receptor (Homo sapiens, UniProt P21728).
For assay [4], the target named is T2, Muscarinic acetylcholine receptor M1 (Homo sapiens, UniProt P11229).
T2 sequence (P11229 whole entry): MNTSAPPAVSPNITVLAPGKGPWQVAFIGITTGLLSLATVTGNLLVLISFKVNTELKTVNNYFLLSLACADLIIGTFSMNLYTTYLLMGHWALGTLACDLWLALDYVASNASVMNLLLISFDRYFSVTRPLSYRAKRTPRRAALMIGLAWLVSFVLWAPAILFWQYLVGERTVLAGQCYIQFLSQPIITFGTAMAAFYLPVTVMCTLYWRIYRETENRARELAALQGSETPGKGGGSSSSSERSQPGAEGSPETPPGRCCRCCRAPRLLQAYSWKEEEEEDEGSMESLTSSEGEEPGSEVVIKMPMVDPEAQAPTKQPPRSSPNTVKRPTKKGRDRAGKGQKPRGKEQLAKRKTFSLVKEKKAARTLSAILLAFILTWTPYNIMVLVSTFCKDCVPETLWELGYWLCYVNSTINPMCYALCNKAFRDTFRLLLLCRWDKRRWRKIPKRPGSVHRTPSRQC
Format: functional, cell-based.

Assay [5] has as its target T3, Neuropeptide Y receptor type 2 (Homo sapiens, UniProt P49146).
T3 sequence (P49146 whole entry): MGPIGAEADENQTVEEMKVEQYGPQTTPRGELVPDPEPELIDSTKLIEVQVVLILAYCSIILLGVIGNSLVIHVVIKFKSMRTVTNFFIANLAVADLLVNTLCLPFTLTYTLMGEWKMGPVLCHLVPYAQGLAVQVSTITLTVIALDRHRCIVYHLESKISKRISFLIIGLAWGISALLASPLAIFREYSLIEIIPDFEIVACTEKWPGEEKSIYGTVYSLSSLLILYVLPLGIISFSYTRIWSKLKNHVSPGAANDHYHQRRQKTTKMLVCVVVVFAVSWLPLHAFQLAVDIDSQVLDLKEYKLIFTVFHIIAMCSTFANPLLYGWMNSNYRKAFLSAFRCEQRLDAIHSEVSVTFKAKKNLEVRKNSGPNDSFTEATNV

Assay [6] concerns the target T4, Endothelin receptor type B (Homo sapiens, UniProt P24530).
T4 sequence (P24530 whole entry): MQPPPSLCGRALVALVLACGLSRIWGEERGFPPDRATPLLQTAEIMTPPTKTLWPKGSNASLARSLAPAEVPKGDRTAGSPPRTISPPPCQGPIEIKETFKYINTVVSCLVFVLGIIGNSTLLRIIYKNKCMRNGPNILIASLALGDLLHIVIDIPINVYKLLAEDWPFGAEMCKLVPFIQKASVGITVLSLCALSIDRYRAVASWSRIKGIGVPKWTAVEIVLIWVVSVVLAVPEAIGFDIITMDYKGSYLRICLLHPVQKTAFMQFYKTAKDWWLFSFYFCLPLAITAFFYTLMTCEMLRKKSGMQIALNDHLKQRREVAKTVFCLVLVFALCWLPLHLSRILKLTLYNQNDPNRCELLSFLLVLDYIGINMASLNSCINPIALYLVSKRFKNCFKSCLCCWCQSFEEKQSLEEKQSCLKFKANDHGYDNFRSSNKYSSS

Assay [7] concerns the target T5, Corticotropin-releasing factor receptor 2 (Homo sapiens, UniProt Q13324).
T5 sequence (Q13324 whole entry): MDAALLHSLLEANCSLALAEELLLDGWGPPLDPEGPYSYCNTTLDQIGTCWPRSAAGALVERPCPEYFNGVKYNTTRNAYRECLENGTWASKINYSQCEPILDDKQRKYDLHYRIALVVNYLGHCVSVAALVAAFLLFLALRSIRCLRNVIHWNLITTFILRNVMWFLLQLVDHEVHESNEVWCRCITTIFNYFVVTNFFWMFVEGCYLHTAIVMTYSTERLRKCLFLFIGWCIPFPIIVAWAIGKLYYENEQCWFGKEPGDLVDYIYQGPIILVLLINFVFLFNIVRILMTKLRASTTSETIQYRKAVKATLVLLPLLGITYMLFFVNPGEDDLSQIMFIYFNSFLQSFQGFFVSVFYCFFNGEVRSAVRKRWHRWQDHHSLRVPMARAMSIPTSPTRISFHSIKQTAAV

Assay [8] has as its target Glucagon receptor (Homo sapiens, UniProt P47871).
The target of assay [9] is Estrogen receptor beta (Homo sapiens, UniProt Q92731).
Assay [10] deals with 5-hydroxytryptamine receptor 6 (Homo sapiens, UniProt P50406).
Further: assay procedure not described here.

Chain of D(1A) dopamine receptor (P21728 whole entry): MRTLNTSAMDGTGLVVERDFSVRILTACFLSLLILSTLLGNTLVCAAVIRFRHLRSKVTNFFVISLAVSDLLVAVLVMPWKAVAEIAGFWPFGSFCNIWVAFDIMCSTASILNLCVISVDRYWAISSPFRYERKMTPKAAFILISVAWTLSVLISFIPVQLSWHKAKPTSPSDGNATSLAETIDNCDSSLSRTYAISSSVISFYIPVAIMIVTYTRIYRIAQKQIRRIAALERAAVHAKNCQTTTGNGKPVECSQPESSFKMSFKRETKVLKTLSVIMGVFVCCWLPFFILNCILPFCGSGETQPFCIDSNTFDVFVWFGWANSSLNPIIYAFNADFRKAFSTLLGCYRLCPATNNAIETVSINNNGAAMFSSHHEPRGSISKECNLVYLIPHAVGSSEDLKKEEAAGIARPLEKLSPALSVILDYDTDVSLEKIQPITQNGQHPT
Chain of 5-hydroxytryptamine receptor 6 (P50406 whole entry): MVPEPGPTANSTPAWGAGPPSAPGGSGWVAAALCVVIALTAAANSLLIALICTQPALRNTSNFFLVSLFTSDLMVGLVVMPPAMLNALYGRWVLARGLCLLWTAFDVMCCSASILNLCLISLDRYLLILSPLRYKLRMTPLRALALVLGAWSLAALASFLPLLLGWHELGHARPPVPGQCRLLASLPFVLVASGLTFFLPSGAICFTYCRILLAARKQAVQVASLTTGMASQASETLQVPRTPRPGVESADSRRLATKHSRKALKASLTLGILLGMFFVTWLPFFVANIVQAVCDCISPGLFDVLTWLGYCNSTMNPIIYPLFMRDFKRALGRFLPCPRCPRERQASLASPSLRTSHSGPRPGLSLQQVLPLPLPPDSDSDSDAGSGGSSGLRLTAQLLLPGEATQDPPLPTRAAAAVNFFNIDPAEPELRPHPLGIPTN
Chain of Glucagon receptor (P47871 whole entry): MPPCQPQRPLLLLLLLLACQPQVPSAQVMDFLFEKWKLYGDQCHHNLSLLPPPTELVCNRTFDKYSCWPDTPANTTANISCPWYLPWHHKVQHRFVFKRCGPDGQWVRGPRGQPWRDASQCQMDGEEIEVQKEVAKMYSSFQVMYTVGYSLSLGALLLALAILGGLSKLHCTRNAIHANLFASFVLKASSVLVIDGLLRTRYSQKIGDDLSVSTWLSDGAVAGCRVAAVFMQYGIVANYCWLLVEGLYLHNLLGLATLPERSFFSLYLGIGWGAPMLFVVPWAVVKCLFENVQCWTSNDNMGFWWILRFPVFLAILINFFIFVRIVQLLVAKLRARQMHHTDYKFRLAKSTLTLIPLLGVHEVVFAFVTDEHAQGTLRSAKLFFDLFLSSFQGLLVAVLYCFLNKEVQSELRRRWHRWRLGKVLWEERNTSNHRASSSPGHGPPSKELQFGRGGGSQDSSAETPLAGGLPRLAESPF
Chain of Estrogen receptor beta (Q92731 whole entry): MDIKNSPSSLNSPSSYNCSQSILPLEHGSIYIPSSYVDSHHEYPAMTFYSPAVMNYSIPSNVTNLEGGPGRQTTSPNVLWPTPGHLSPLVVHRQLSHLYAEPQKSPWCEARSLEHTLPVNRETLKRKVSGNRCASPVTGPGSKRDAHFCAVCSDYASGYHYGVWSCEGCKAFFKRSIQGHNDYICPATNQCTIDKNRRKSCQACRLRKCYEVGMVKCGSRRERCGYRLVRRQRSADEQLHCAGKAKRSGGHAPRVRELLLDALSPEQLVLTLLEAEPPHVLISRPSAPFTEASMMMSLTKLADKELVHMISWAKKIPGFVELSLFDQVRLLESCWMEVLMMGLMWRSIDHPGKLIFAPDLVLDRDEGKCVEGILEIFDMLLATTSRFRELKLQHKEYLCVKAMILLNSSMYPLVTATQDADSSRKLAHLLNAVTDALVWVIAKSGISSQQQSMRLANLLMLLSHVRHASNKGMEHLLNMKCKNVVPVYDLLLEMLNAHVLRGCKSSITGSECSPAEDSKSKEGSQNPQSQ
Chain of Beta-3 adrenergic receptor (P13945 whole entry): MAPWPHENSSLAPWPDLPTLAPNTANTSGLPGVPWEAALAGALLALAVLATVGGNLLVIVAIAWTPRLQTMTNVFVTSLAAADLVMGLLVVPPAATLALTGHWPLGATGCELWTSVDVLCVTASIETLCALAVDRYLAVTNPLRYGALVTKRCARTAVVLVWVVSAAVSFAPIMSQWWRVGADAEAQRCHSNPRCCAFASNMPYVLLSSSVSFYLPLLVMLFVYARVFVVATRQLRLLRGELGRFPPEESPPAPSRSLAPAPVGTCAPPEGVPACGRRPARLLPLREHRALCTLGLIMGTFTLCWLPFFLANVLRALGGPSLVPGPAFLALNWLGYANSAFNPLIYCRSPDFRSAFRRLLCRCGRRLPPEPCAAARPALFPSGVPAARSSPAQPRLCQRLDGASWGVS

On to `CC(C(=O)O)c1ccc(N2CC=CC2)c(Cl)c1` (stereo not drawn) [PIRPROFEN], for which the AC50 is > 30 µM in assay [1]; > 10 µM in assay [2]; > 10 µM in assay [3]; > 30 µM in assay [4]; > 30 µM in assay [5]; > 30 µM in [6]. Also, the AC50 in assay [7], in [8] and in assay [9] was > 30 µM each time.
`Oc1ncnc2[nH]ncc12` [ALLOPURINOL]: the AC50 in assay [1] was > 30 µM; in assay [2], > 10 µM; in [3] it was > 10 µM; in assay [5], > 30 µM; in assay [6] it was > 30 µM; in [7] it was > 30 µM. In addition, the AC50 in [8] and in [9] was > 30 µM in each case.
Regarding `CCC(=O)c1c(O)cc(O)cc1O` [FLOPROPIONE], the AC50 in [4] was > 30 µM.
In the case of `O=C(CCCCCCC(=O)Nc1ccccc1)NO` [VORINOSTAT], the AC50 in [2], in assay [3], in assay [5], in [10], in assay [6] and in assay [8] was > 10 µM each time.
`CCc1nn(CCCN2CCN(c3cccc(Cl)c3)CC2)c(=O)n1CCOc1ccccc1` [NEFAZODONE]: the AC50 in assay [1] was 9.5 µM; in assay [2] it was 0.271 µM; in [5], > 30 µM; in assay [10], 0.808 µM; in [6], > 30 µM; in assay [7] it was > 30 µM. In addition, the AC50 in [8] and in [9] was > 30 µM throughout.
As for `CC(=O)Oc1c(C)cc(OCC(O)CNC(C)C)c(C)c1C` (stereo not drawn) [METIPRANOLOL], the concentration at half-maximal activity (AC50) in assay [4] was > 30 µM.
On to `C#C[C@]1(O)CC[C@H]2[C@@H]3CCc4cc(O)ccc4[C@H]3CC[C@@]21C` [ETHINYL ESTRADIOL], for which the AC50 in [1] was 35.4 µM; in assay [2] it was > 10 µM; in assay [3], > 10 µM; in assay [5], > 30 µM; in assay [10] it was > 30 µM; in [6], > 30 µM. Moreover, the AC50 in assay [7] and in assay [8] was > 30 µM throughout.
For the compound `CCc1ccc(CCOc2ccc(CC3SC(=O)NC3=O)cc2)nc1` (stereo not drawn) [PIOGLITAZONE], the concentration at half-maximal activity (AC50) in assay [1] is > 30 µM; in [2], > 10 µM; in assay [3], > 10 µM; in [5] it was > 30 µM; in [10], > 10 µM; in [6] it was > 30 µM. Besides, the half-maximal activity concentration (AC50) in [7], in assay [8] and in [9] was > 30 µM throughout.
Consider `O=C1[C@H](CC[C@H](O)c2ccc(F)cc2)[C@@H](c2ccc(O)cc2)N1c1ccc(F)cc1` [EZETIMIBE], for which the concentration at half-maximal activity (AC50) in [4] is > 30 µM.
Still for that read-out and setting: with `CCO/N=C(\C(=O)N[C@@H]1C(=O)N2C(C(=O)[O-])=C(Sc3nc(-c4cc[n+](C)cc4)cs3)CS[C@H]12)c1nsc(N)n1` [CEFTAROLINE] the figure was > 30 µM.
The same measure, in the same setting: for `C[N+](C)(C)CCCCCCCCCC[N+](C)(C)C` [DECAMETHONIUM] the value was > 30 µM.
In the case of `CCN(CC)CCNC(=O)c1cc(Cl)c(N)cc1OC` [METOCLOPRAMIDE], the AC50 in [1] is > 30 µM; in assay [2], 1.16 µM; in [3] it was > 10 µM; in assay [5], > 30 µM; in [6] it was > 30 µM; in assay [7] it was > 30 µM. Further, the half-maximal activity concentration (AC50) in assay [8] and in assay [9] was > 30 µM each time.
`OCCN1CCN(CCCN2c3ccccc3C=Cc3ccccc32)CC1` [OPIPRAMOL]: the AC50 was 2.24 µM in assay [3] and > 30 µM in assay [4].
Consider `O=C1c2ccccc2C(=O)C1C(=O)C(c1ccccc1)c1ccccc1` [DIPHENADIONE], for which the half-maximal activity concentration (AC50) in [4] came out at 7.26 µM. That is a single-digit micromolar value.
In the case of `NS(=O)(=O)c1cc2c(cc1Cl)NCNS2(=O)=O` [HYDROCHLOROTHIAZIDE], the concentration at half-maximal activity (AC50) was > 30 µM in assay [1]; > 10 µM in assay [2]; > 10 µM in assay [3]; > 30 µM in assay [5]; > 10 µM in [10]; > 30 µM in assay [6]. Also, the AC50 in [7], in assay [8] and in assay [9] was > 30 µM in each case.
Turning to `COC(=O)[C@@H]1CC2=CC(=O)CC[C@]2(C)[C@@]23O[C@@H]2C[C@@]2(C)[C@@H](CC[C@@]24CCC(=O)O4)[C@H]13` [EPLERENONE], the half-maximal activity concentration (AC50) in assay [1] is > 30 µM; in [3], > 10 µM; in assay [5], > 30 µM; in [6], > 30 µM; in assay [7], > 30 µM; in assay [8], > 30 µM.
As for `NC(N)=Nc1nc(CSCCC(N)=NS(N)(=O)=O)cs1` [FAMOTIDINE], the AC50 is > 30 µM in [1]; > 10 µM in assay [2]; > 10 µM in assay [3]; > 30 µM in [5]; > 10 µM in assay [10]; > 30 µM in assay [6]. In addition, the half-maximal activity concentration (AC50) in assay [7] and in [8] was > 30 µM each time.
Take `CC(N)Cc1ccccc1` (stereo not drawn) [AMPHETAMINE]: the AC50 in assay [1], in assay [5], in [6], in assay [7], in assay [8] and in [9] was > 30 µM each time.
As to `Cc1ccc(O)c2ncccc12` [TILIQUINOL], the AC50 in [4] was > 30 µM.
The same measure, in the same setting: with `CN(C)C(=O)Oc1ccc[n+](C)c1` [PYRIDOSTIGMINE] the figure was > 30 µM; with `O=C(NC[C@H]1CN(c2ccc(N3CCOCC3=O)cc2)C(=O)O1)c1ccc(Cl)s1` [RIVAROXABAN], > 30 µM.
As for `CCOC(=O)[C@H](CCc1ccccc1)N[C@@H](C)C(=O)N1CCC[C@H]1C(=O)O`, the AC50 was > 30 µM in assay [1]; > 10 µM in assay [2]; > 10 µM in [3]; > 30 µM in assay [5]; > 10 µM in assay [10]; > 30 µM in assay [6]. The AC50 in [7] and in assay [8] was > 30 µM in each case.
As to `CC(N/C(=N\C#N)Nc1ccncc1)C(C)(C)C` (stereo not drawn) [PINACIDIL ANHYDROUS], the half-maximal activity concentration (AC50) in assay [4] is > 30 µM.
On to `CC(C)NCC(O)COc1ccc(COCCOC(C)C)cc1` (stereo not drawn) [BISOPROLOL], for which the half-maximal activity concentration (AC50) in assay [2] is > 10 µM; in assay [3], > 10 µM; in assay [5], > 30 µM; in assay [6], > 30 µM; in assay [7], > 30 µM; in [8], > 30 µM. In addition, the half-maximal activity concentration (AC50) in assay [9] was > 30 µM.
For the compound `C(=N\NC1=NCCN1)/c1c2ccccc2c(/C=N/NC2=NCCN2)c2ccccc12` [BISANTRENE], the concentration at half-maximal activity (AC50) in assay [4] was > 10 µM.

For orientation: AC50 means the midpoint of the concentration-response curve, whichever way the signal moves.

The values are drawn from ChEMBL document CHEMBL5291721, “A preclinical secondary pharmacology resource illuminates target-adverse drug reaction associations of marketed drugs” (Nat Commun, 2023).
